The source made the active and inactive calls. How the calls were made is not given here. Bridge positions count the residues as written; N and C are the ends. Square brackets hold non-standard residues; d marks the D form. Peptide text beside a SMILES is read from it. * marks the point of attachment. ξ: configuration not given here. Heptanoyl(5-Me) = CCC(C)CCCC(=O)*; ξThr(3R) = C[C@@H](O)C(N)C(=O)O; dDab = NCC[C@@H](N)C(=O)O; Dab = NCC[C@H](N)C(=O)O
Tested on: GENE-TOX genotoxicity assays, various organisms and cells
Experiment: GENE-TOX mutagenicity studies
Conditions: for call: Assay Type: In vivo carcinogenicity studies
[1] = Species/Cell Type: Escherichia coli polA (W3119 vs P3478), Assay Type: Rec-assay, DNA effects (bacterial DNA repair), Assay Code: RE1+, Evaluation Type: Evaluation A (Pre-1980)
[2] = Species/Cell Type: Human, Assay Type: Sister-chromatid exchange (SCE) in vitro, Assay Code: SC1+D, Dose Response: With dose response, Evaluation Type: Evaluation B (Post-1980)
[3] = Species/Cell Type: Salmonella typhimurium (one or more of the five standard strains: TA98, TA100, TA1535, TA1537, and TA1538), Assay Type: Histidine reverse gene mutation, Ames assay, Assay Code: SAL+, Evaluation Type: Evaluation A (Pre-1980)
[4] = Species/Cell Type: Syrian hamster embryo (SA7/SHE) cells, Assay Type: Cell transformation, viral enhanced, Assay Code: CT7+, Evaluation Type: Evaluation A (Pre-1980)
[5] = Species/Cell Type: Rodents, Sex: Male, Assay Type: Dominant lethal test, Assay Code: DLT-, Evaluation Type: Evaluation A (Pre-1980)
[6] = Species/Cell Type: Escherichia coli polA (W3119 vs P3478), Assay Type: Rec-assay, DNA effects (bacterial DNA repair), Assay Code: RE1-, Evaluation Type: Evaluation A (Pre-1980)
[7] = Species/Cell Type: Chinese hamster lung (V79) cells, Assay Type: Forward gene mutation at the HPRT or ouabain locus, Assay Code: V79-*, Activation: With metabolic activation, Evaluation Type: Evaluation A (Pre-1980)
[8] = Species/Cell Type: Mammalian polychromatic erythrocytes, Assay Type: Micronucleus test, chromosome aberrations, Assay Code: MNT+, Evaluation Type: Evaluation A (Pre-1980)
[9] = Species/Cell Type: Nonhuman, Assay Code: CCGT, Evaluation Type: Evaluation A (Pre-1980)

## OCC1CO1 (configuration not stated)
[1]
  mutagenic call: active; positive
Species/Cell Type: Human diploid fibroblasts, Assay Type: Unscheduled DNA synthesis (UDS) in vitro, DNA effects, Assay Code: UDH-, Evaluation Type: Evaluation A (Pre-1980)
  mutagenic call: inactive; negative
Species/Cell Type: Human lymphocytes, Assay Type: Sister-chromatid exchange (SCE) in vitro, Assay Code: SCL+D, Dose Response: With dose response, Evaluation Type: Evaluation B (Post-1980)
  mutagenic call: active; positive
[2]
  mutagenic call: active; positive
Species/Cell Type: Neurospora crassa, Assay Type: Reverse gene mutation, Assay Code: NER+, Evaluation Type: Evaluation A (Pre-1980)
  mutagenic call: active; positive
Species/Cell Type: Saccharomyces cerevisiae, Assay Type: Mitotic recombination or gene conversion, Assay Code: YEH+, Evaluation Type: Evaluation A (Pre-1980)
  mutagenic call: active; positive
[3]
  mutagenic call: active; positive
Species/Cell Type: Schizosaccharomyces pombe, Assay Type: Reverse gene mutation, Assay Code: YEZ+, Evaluation Type: Evaluation A (Pre-1980)
  mutagenic call: active; positive
Species/Cell Type: Syrian hamster embryo (SHE) cells, Assay Type: Cell transformation, clonal assay, Assay Code: CTCT, Evaluation Type: Evaluation A (Pre-1980)
  mutagenic call: no conclusion

## OCc1c2c(cc3ccccc13)-c1ccccc1C1OC21 (configuration not stated)
Species/Cell Type: Mouse prostate cells, Assay Type: Cell transformation, Assay Code: CTM+, Evaluation Type: Evaluation A (Pre-1980)
  mutagenic call: active; positive

## CC1=CC(=C(c2ccc(N)cc2)c2ccc(N)cc2)C=CC1=N (tested in a mixture with another compound)
Species/Cell Type: Saccharomyces cerevisiae, Assay Type: Forward gene mutation, Assay Code: YEFT, Evaluation Type: Evaluation A (Pre-1980)
  mutagenic call: no conclusion

## Cc1c2ccccc2c(CCl)c2ccc3ccccc3c12
[3]
  mutagenic call: active; positive

## COc1cc([C@@H]2c3cc4c(cc3[C@@H](O)[C@H]3COC(=O)[C@H]23)OCO4)cc(OC)c1O
Species/Cell Type: Chinese hamster ovary (CHO) cells, Assay Type: Forward gene mutation at the HPRT locus, Assay Code: CHOT, Evaluation Type: Evaluation B (Post-1980)
  mutagenic call: no conclusion

## [Cl][Fe][Cl]
Species/Cell Type: Bacillus subtilis (H17 vs M45), Assay Type: Rec-assay, spot test, DNA effects (bacterial DNA repair), Assay Code: REW-, Evaluation Type: Evaluation A (Pre-1980)
  mutagenic call: inactive; negative
[4]
  mutagenic call: active; positive

## C=CCn1c(Cl)c(CC)c(=O)n(CC)c1=O
Species/Cell Type: Drosophila melanogaster, Assay Type: Sex-linked recessive lethal gene mutation, Assay Code: SRLT, Evaluation Type: Evaluation A (Pre-1980)
  mutagenic call: no conclusion

## C/C(=N\O)c1ccc([N+](=O)[O-])s1
Species/Cell Type: Salmonella typhimurium (one or more of the five standard strains: TA98, TA100, TA1535, TA1537, and TA1538), Assay Type: Histidine reverse gene mutation, Ames assay, Assay Code: SALT, Evaluation Type: Evaluation A (Pre-1980)
  mutagenic call: no conclusion

## CN(C)N
Species/Cell Type: Human diploid fibroblasts, Assay Type: Unscheduled DNA synthesis (UDS) in vitro, DNA effects, Assay Code: UDH-*, Activation: With metabolic activation, Evaluation Type: Evaluation A (Pre-1980)
  mutagenic call: inactive; negative
Species/Cell Type: Mammalian polychromatic erythrocytes, Assay Type: Micronucleus test, chromosome aberrations, Assay Code: MNTT, Evaluation Type: Evaluation A (Pre-1980)
  mutagenic call: no conclusion
Species/Cell Type: Mouse lymphoma (L5178Y) cells, Assay Type: Forward gene mutation at the thymidine kinase (TK) locus, chromosome aberrations, Assay Code: L51-*, Activation: With metabolic activation, Evaluation Type: Evaluation A (Pre-1980)
  mutagenic call: inactive; negative
Species/Cell Type: Mouse, Sex: Male, Assay Type: Sperm morphology, Assay Code: SPI-, Evaluation Type: Evaluation A (Pre-1980)
  mutagenic call: inactive; negative
Species/Cell Type: Nonhuman, Assay Code: CCG+, Evaluation Type: Evaluation A (Pre-1980)
  call: active; positive
[5]
  mutagenic call: inactive; negative
Species/Cell Type: Saccharomyces cerevisiae, Assay Type: Mitotic recombination or gene conversion, Assay Code: YEC-, Evaluation Type: Evaluation A (Pre-1980)
  mutagenic call: inactive; negative
Species/Cell Type: Salmonella typhimurium (one or more of the five standard strains: TA98, TA100, TA1535, TA1537, and TA1538), Assay Type: Histidine reverse gene mutation, Ames assay, Assay Code: SAL+*, Activation: With metabolic activation, Evaluation Type: Evaluation A (Pre-1980)
  mutagenic call: active; positive
[4]
  mutagenic call: active; positive

## CC(=O)O[C@]1(C(C)=O)CC[C@H]2[C@@H]3C[C@H](C)C4=CC(=O)CC[C@]4(C)[C@H]3CC[C@@]21C
[2]
  mutagenic call: active; positive
Species/Cell Type: Human, Sex: Male, Assay Type: Sperm morphology, Assay Code: SPH+, Evaluation Type: Evaluation A (Pre-1980)
  mutagenic call: active; positive
Species/Cell Type: Nonhuman, Assay Type: Sister-chromatid exchange (SCE) in vivo, Assay Code: SC3+, Evaluation Type: Evaluation B (Post-1980)
  mutagenic call: active; positive

## CN=NNc1ccccc1
Species/Cell Type: Neurospora crassa, Assay Type: Forward gene mutation, Assay Code: NEF+, Evaluation Type: Evaluation A (Pre-1980)
  mutagenic call: active; positive

## O=[N+]([O-])c1cnc(CO)n1CCO
Species/Cell Type: Human lymphocytes, Assay Type: Sister-chromatid exchange (SCE) in vitro, Assay Code: SCLT, Evaluation Type: Evaluation B (Post-1980)
  mutagenic call: no conclusion
Species/Cell Type: Human, Assay Type: Sister-chromatid exchange (SCE) in vitro, Assay Code: SC1T, Evaluation Type: Evaluation B (Post-1980)
  mutagenic call: no conclusion

## CCOS(=O)(=O)CC
Species/Cell Type: Arabidopsis species, Assay Type: Gene mutation, Assay Code: ARM+, Evaluation Type: Evaluation A (Pre-1980)
  mutagenic call: active; positive
Species/Cell Type: Hordeum vulgare (barley), Assay Type: Chromosome aberrations, Assay Code: HOC-, Evaluation Type: Evaluation A (Pre-1980)
  mutagenic call: inactive; negative
Species/Cell Type: Hordeum vulgare (barley), Assay Type: Gene mutation, Assay Code: HOM+D, Dose Response: With dose response, Evaluation Type: Evaluation A (Pre-1980)
  mutagenic call: active; positive

## CC1(C)S[C@@H]2[C@H](NC(=O)[C@H](N)c3ccccc3)C(=O)N2[C@H]1C(=O)O
[6]
  mutagenic call: inactive; negative

## Cc1c2c(c(CO)c3c1ccc1ccccc13)C=C[C@H](O)[C@H]2O
[7]
  mutagenic call: inactive; negative

## CCC(C)CCCC(=O)N[C@@H](CCN)C(=O)N[C@H](C(=O)N[C@@H](CCN)C(=O)N[C@H]1CCNC(=O)C([C@@H](C)O)NC(=O)[C@@H](CCN)NC(=O)[C@H](CCN)NC(=O)[C@@H](CC(C)C)NC(=O)[C@@H](CC(C)C)NC(=O)[C@H](CCN)NC1=O)[C@@H](C)O (stereo partly drawn) ({Heptanoyl(5-Me)}-[Dab]T[Dab][Dab][Dab][dL][dL][Dab][dDab][ξThr(3R)]; lactam 4-C)
[6]
  mutagenic call: inactive; negative
Species/Cell Type: Human lymphocytes, Assay Type: Sister-chromatid exchange (SCE) in vitro, Assay Code: SCL-, Evaluation Type: Evaluation B (Post-1980)
  mutagenic call: inactive; negative
Species/Cell Type: Human, Assay Type: Sister-chromatid exchange (SCE) in vitro, Assay Code: SC1-, Evaluation Type: Evaluation B (Post-1980)
  mutagenic call: inactive; negative

## CC(=O)NNC(=O)c1ccncc1
Species/Cell Type: Salmonella typhimurium, Assay Type: Forward and reverse gene mutation, host-mediated assay, Assay Code: HMAT, Evaluation Type: Evaluation A (Pre-1980)
  mutagenic call: no conclusion

## CN1CCN(CC(=O)N/N=C/c2ccc([N+](=O)[O-])o2)CC1
Species/Cell Type: Escherichia coli WP2, Assay Type: Tryptophan reverse gene mutation, Assay Code: WP2-, Evaluation Type: Evaluation A (Pre-1980)
  mutagenic call: inactive; negative
[8]
  mutagenic call: active; positive
[5]
  mutagenic call: inactive; negative
Species/Cell Type: Saccharomyces cerevisiae, Assay Type: Mitotic recombination or gene conversion, Assay Code: YEC+, Evaluation Type: Evaluation A (Pre-1980)
  mutagenic call: active; positive

## Nc1ccc(N)c(Cl)c1
Species/Cell Type: Nonhuman, Assay Code: CCG-L, Evaluation Type: Evaluation A (Pre-1980)
  call: inactive; negative

## Cc1c2c(c(CO)c3ccccc13)[C@H](O)[C@@H](O)c1ccccc1-2
[7]
  mutagenic call: inactive; negative
[9]
  call: no conclusion

## S=c1nc[nH]c2nc[nH]c12
[1]
  mutagenic call: active; positive
Species/Cell Type: Mammalian germ cells, Sex: Male, Assay Type: Chromosome aberrations in vivo, Assay Code: CY9+, Evaluation Type: Evaluation A (Pre-1980)
  mutagenic call: active; positive
[8]
  mutagenic call: active; positive
Species/Cell Type: Mouse (C3H/10T1/2) cells, Assay Type: Cell transformation, Assay Code: CTH-, Evaluation Type: Evaluation A (Pre-1980)
  mutagenic call: inactive; negative
Species/Cell Type: Mouse, Sex: Male, Assay Type: Heritable translocation test, chromosome aberrations, Assay Code: HTT-, Evaluation Type: Evaluation A (Pre-1980)
  mutagenic call: inactive; negative
Species/Cell Type: Nonhuman bone marrow, Assay Type: Chromosome aberrations, in vivo, Assay Code: CY#+D, Dose Response: With dose response, Evaluation Type: Evaluation A (Pre-1980)
  mutagenic call: active; positive
[9]
  call: no conclusion
Species/Cell Type: Nonhuman, Assay Type: Sister-chromatid exchange (SCE) in vitro, Assay Code: SC2T, Evaluation Type: Evaluation B (Post-1980)
  mutagenic call: no conclusion
Species/Cell Type: Rodents, Sex: Male, Assay Type: Dominant lethal test, Assay Code: DLT+, Evaluation Type: Evaluation A (Pre-1980)
  mutagenic call: active; positive

Reference: PubChem BioAssay AID1259408 (Genetic Toxicology Data Bank (GENE-TOX), 2018)
